Read-outs that look alike come from different tables or passages of the source.
Test system: AMPA receptors
Assay: Excitatory fluxes induced by AMPA in Xenopus oocytes (2-electrode voltage-clamp)
Assay type: cell-based
Conditions: Xenopus oocytes injected with rat cerebral cortex poly-(A+) mRNA, AMPA 10 μM, 20 to 24° C., OR2 medium
Experimental: Study of the Excitatory Fluxes Induced By AMPA in Xenopus oocytes
mRNAs are prepared from cerebral cortex of male Wistar rat by the guanidinium thiocyanate/phenol/chloroform method. The poly-(A^+) mRNAs are isolated by chromatography on oligo-dT cellulose and injected in an amount of 50 ng per oocyte. The oocytes are left to incubate for 2 to 3 days at 18° C. to allow expression of the receptors and are then stored at from 8 to 10° C.
Electrophysiological recording is carried out in a Plexiglass® chamber at from 20 to 24° C. in OR2 medium (J. Exp. Zool., 1973, 184, 321-334) by the 2-electrode “voltage-clamp” method, a 3rd electrode being placed in the bath to serve as reference.
All the compounds are administered via the incubation medium and the electric current is measured at the end of the period of administration. AMPA is used at a concentration of 10 μM. For each compound studied, the concentration that doubles (EC2X) or quintuples (EC5X) the intensity of the current induced by AMPA alone (5 to 50 nA) is determined.

Q: Which results are given for `O=C(Oc1ccc2c(c1)S(=O)(=O)NCC2)c1ccccc1` [Example 2, 1,1-Dioxido-3,4-dihydro-2H-1,2-benzothiazin-7-yl Benzoate]?
A: Concentration that doubles (EC2X) or quintuples (EC5X) the AMPA-induced current (read-out: EC2X (concentration that doubles the intensity of the current induced by AMPA alone)): 11.9 µM; Concentration that doubles (EC2X) or quintuples (EC5X) the AMPA-induced current (read-out: EC5X (concentration that quintuples the intensity of the current induced by AMPA alone)): 49.3 µM

Reference: patent publication US20050014744A1, “Benzothiazine and benzothiadiazine compounds” (priority 2001, published 2005)
